Assay results published in PubChem BioAssay AID463204 (Broad Institute, 2010).
Activity calls are given as the source filed them.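 How the source made its calls: active means AC50 no more than ten times the top concentration tested, that is within one log above it; inconclusive means flat curve fit with activity between 30% and 70%, or invalid poor fit; inactive means AC50 beyond ten times the top tested dose.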

Tested on: S. cerevisiae Mot1-301 ts growth rescue, BacTiter-Glo ATP luminescence
Experiment: restored Mot1-301 yeast growth at 38.5C – whole organism, S. cerevisiae, Mot1-301 ts mutant, luminescence, dose retest, SUMOylation pathway inhibitor project, confirmation (AID 463204);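 further: growth at restrictive 38.5 degrees C of Mot1-301 OY566 strain; actives raise luminescence by restoring growth of the ts mutant at high temperature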

## COc1cc(O)oc1C=Nc1ccc(C(=O)O)cc1
  AC50: > 42 µM (inactive)

## COc1ccc(NC(=O)COc2cc(C)cc(C)c2)cc1S(=O)(=O)N1CCCCC1
  AC50: > 42 µM (inactive)

## O=Nc1c(-c2cccc([N+](=O)[O-])c2)nc2ncccn12
  AC50: 4.09 µM

## CC(=O)Nc1ccc(S(=O)(=O)Nc2ccc(S(=O)(=O)Nc3ncccn3)cc2)cc1
  AC50: > 42 µM (inactive)

## Cc1nc(-c2ccncc2)sc1C(=O)Nc1ccc(Br)cc1
  AC50: > 42 µM (inactive)

## CC1=Nc2ccccc2/C1=C\c1nc(-c2ccccc2)oc1O
  AC50: > 42 µM (inactive)

## O=C1CCC(C(=O)N2CCN(c3ccccc3)CC2)CN1CC1CCCCC1 (stereo not given)
  AC50: > 42 µM (inactive)

## Cc1ccc(-c2nc(-c3cccnc3)sc2CC(=O)O)cc1
  AC50: > 42 µM (inactive)

## CCOC(=O)N1CCC(Nc2nc3ccccc3n3nnnc23)CC1
  AC50: > 42 µM (inactive)

## Cc1nc(NC(=O)CSc2nc(N)cc(N)n2)sc1C
  AC50: > 42 µM (inactive)

## CC1C(=O)CC(c2ccccc2)N(C)C1c1ccccc1 (stereo not given)
  AC50: 33.7 µM

## CCC(c1nc2ccccc2c(=O)n1-c1nc2ccccc2s1)N1C(=O)c2ccccc2C1=O (stereo not given)
  AC50: > 42 µM (inactive)

## CCc1ccc2c(c1)C(c1ccc([N+](=O)[O-])cc1)=NNC(c1ccc(C)cc1)=N2
  AC50: > 42 µM (inactive)

## CCN(CC)c1ccc(N=Cc2c(O)n(Cc3ccccc3)c(=O)[nH]c2=O)cc1
  AC50: > 42 µM (inactive)

## CCNC(=S)NNC(=O)c1ccc(=O)n(Cc2ccccc2)c1
  AC50: > 42 µM (inactive)

## Cc1nnc(N=c2ssnc2Cl)o1
  AC50: 3.31 µM

## COc1ccc(NC(=O)C2CCCN2S(=O)(=O)c2cccc3cccnc23)cc1OC (stereo not given)
  AC50: > 42 µM (inactive)

## CC(C)=CC(=O)N1CCCC(N2CCN(c3ccc(F)cc3)CC2)C1 (stereo not given)
  AC50: > 42 µM (inactive)

## CC(=O)Nc1cc2nn(-c3ccccc3)nc2cc1Cl
  AC50: > 42 µM (inactive)

## COc1cccc(NC(=O)c2nn(C34CC5CC(CC(C5)C3)C4)cc2[N+](=O)[O-])c1
  AC50: > 42 µM (inactive)

## O=C(CSc1ncn[nH]1)Nc1cccc(S(=O)(=O)N2CCCCCC2)c1
  AC50: > 42 µM (inactive)

## COc1ccc(-c2csc(NC(=O)CCS(=O)(=O)c3ccccc3)n2)c(OC)c1
  AC50: > 42 µM (inactive)

## COc1ccc(C2=NOC(Cn3nc(C(=O)NCc4cccs4)cc3-c3ccccc3)C2)cc1 (stereo not given)
  AC50: > 42 µM (inactive)

## c1ccc2[nH]c(CSc3nccs3)nc2c1
  AC50: > 42 µM (inactive)

## COCCCN1C(=O)c2ccc(C(=O)Nc3ccc(OC)cc3OC)cc2C1=O
  AC50: > 42 µM (inactive)

## O=C(CSc1nnc(NC(=O)CN2CCOCC2)s1)Nc1ccccc1
  AC50: > 42 µM (inactive)

## Cc1ccc(S(=O)(=O)N2CCN(C(=O)CSc3nc(N)cc(=O)[nH]3)CC2)c(C)c1
  AC50: > 42 µM (inactive)

## CCOC(C(=O)OCCCN(CC)CC)(c1ccccc1)c1ccccc1
  AC50: > 42 µM (inactive)

## COc1ccc(CCN2CC(C(=O)N(C)CC(=O)Nc3cccc(F)c3)CC2=O)cc1OC (stereo not given)
  AC50: > 42 µM (inactive)

## CNc1csc(C)c(C)c1=O
  AC50: > 42 µM (inactive)

## Cc1ccccc1C(=O)NNC(=O)/C=C\C(=O)O
  AC50: > 42 µM (inactive)

## COc1cc(C(=O)COC(=O)c2cc([N+](=O)[O-])ccc2N2CCOCC2)ccc1OC(F)F
  AC50: 29.4 µM

## NC(=O)C1CCCN(C(=S)Nc2cccc3ccccc23)C1 (stereo not given)
  AC50: > 42 µM (inactive)

## CCCCCCCCCCOC(=O)Cn1c(COc2ccccc2OC)[n+](C)c2ccccc21
  AC50: 13.4 µM

## COc1cc(C(=O)Nc2sc3c(c2C(=O)O)CCC(C)C3)cc(OC)c1OC (stereo not given)
  AC50: > 42 µM (inactive)

## CCCCN(C/C=C/c1ccccc1OC)Cc1ccccc1
  AC50: > 42 µM (inactive)

## CCOC(=O)CS(=O)(=O)c1ccc2ccccc2c1
  AC50: > 42 µM (inactive)

## COc1ccc(CN(C)S(=O)(=O)c2nnc(NC(=O)c3ccc(C)cc3)s2)cc1OC
  AC50: > 42 µM (inactive)

## COc1cccc(-n2nnc3c(=O)n(CC(=O)N4CCCc5ccccc54)cnc32)c1
  AC50: > 42 µM (inactive)

## CCNC(=O)NC1c2ccccc2CSc2ccccc21 (stereo not given)
  AC50: > 42 µM (inactive)

## COCc1nnc(NC(=O)CC(C)C)s1
  AC50: > 42 µM (inactive)

## O=S(=O)(Nc1cccc2cn[nH]c12)c1ccc(F)cc1
  AC50: > 42 µM (inactive)

## O=C(c1ccc2c(=O)n(Cc3ccccc3Cl)c(=S)[nH]c2c1)N1CCOCC1
  AC50: > 42 µM (inactive)

## CCC(C(=O)Nc1cccnc1)c1ccccc1 (stereo not given)
  AC50: > 42 µM (inactive)

## COc1cc(C(=O)OCC(=O)NCc2ccccc2)cc(NC(=O)c2ccco2)c1OC
  AC50: > 42 µM (inactive)

## Cc1ccc(S(=O)(=O)N(C)CC(=O)O/N=C(\N)c2ccccn2)cc1
  AC50: > 42 µM (inactive)

## CCn1c(SCC(N)=O)nnc1-c1cc2c(C)nn(-c3ccccc3)c2s1
  AC50: > 42 µM (inactive)

## O=C(CCc1ccccc1)N1CCN(c2ccccc2F)CC1
  AC50: > 42 µM (inactive)

## CCN(CC)C(=O)C1CCCN(c2ccc([N+](=O)[O-])cc2/C=N/NC(=O)c2cccc(Br)c2)C1 (stereo not given)
  AC50: > 42 µM (inactive)

## O=C(Nc1cnn(Cc2ccc(Cl)cc2)c1)c1ccc([N+](=O)[O-])cc1
  AC50: > 42 µM (inactive)

## CN(Cc1cccnc1)Cc1cn[nH]c1-c1ccc(-c2ccccc2)cc1
  AC50: > 42 µM (inactive)

## COC(=O)c1cccc(NC(=O)c2cccnc2)c1
  AC50: > 42 µM (inactive)

## O=C(Nc1ccccc1)N1CCN(CCc2ccccc2)CC1
  AC50: > 42 µM (inactive)

## Cc1cc(C)n(-c2nc3ccccc3nc2N2CCN(C(=O)c3ccccc3)CC2)n1
  AC50: > 42 µM (inactive)

## CCOc1ccccc1N(C(=O)c1snc(C(N)=O)c1N)C(CC)C(=O)NC1CCCC1 (stereo not given)
  AC50: 41.7 µM

## COc1cc(NC(=O)CN2CCN(CC(=O)Nc3ccccc3OC)CC2)cc(OC)c1
  AC50: > 42 µM (inactive)

## Cc1cc(C)n(CCOC(=O)C2C(C=C(Cl)Cl)C2(C)C)n1 (stereo not given)
  AC50: > 42 µM (inactive)

## Cn1c(CN2CCOCC2)nnc1SCC(N)=O
  AC50: > 42 µM (inactive)

## Cc1ccc(N(CC(=O)Nc2cccc(C)c2)S(=O)(=O)c2cccc3nonc23)cc1
  AC50: > 21 µM (inactive)

## CCN(CC)S(=O)(=O)c1ccc(S(=O)(=O)N2CCC(C(=O)NC3CCN(Cc4ccccc4)CC3)CC2)cc1
  AC50: > 42 µM (inactive)

## CCOC(=O)c1c(CN2CCCCC2)n(C)c2cc(Br)c(O)c(CN(C)C)c12
  AC50: > 42 µM (inactive)

## CSc1ccccc1-c1nc(-c2ccncc2)no1
  AC50: > 42 µM (inactive)

## CC(C)n1c(CN(C)c2ccccc2)nc2ccccc21
  AC50: > 42 µM (inactive)

## CN(CC(=O)NCc1cccs1)S(=O)(=O)c1cccc2nsnc12
  AC50: > 42 µM (inactive)

## Cc1ccc(CC2CC(=O)N(c3ccc4c(c3)OCCO4)C2=O)cc1 (stereo not given)
  AC50: > 42 µM (inactive)

## COC(=O)c1ccc(CSc2nc3ccccc3c(=O)n2CC(C)C)o1
  AC50: > 42 µM (inactive)

## Cc1nc2sc(C(c3ccccc3)N3CCC(O)CC3)c(O)n2n1 (stereo not given)
  AC50: > 42 µM (inactive)

## COc1ccc(CCNC(=O)C/C(C)=N/NC(=O)COc2ccc(C)cc2Br)cc1OC
  AC50: > 42 µM (inactive)

## Cc1ccc2c(c1)C(O)(CC(=O)c1cccnc1)C(=O)N2 (stereo not given)
  AC50: > 42 µM (inactive)

## CCOC(=O)N1CCC(NS(=O)(=O)c2ccc(C)c(Cl)c2)CC1
  AC50: > 42 µM (inactive)

## CCOc1cc(/C=N/NC(=O)C(=O)N/N=C/c2ccc(O)c(OCC)c2)ccc1O
  AC50: > 42 µM (inactive)

## Cc1cc(OCC(=O)NCC2CCC(C(=O)O)CC2)c2c(C)c(C)c(=O)oc2c1 (stereo not given)
  AC50: > 42 µM (inactive)

## CCc1nn(C)c(N)c1C
  AC50: > 42 µM (inactive)

## N=c1c[n+](C2CCCCC2)[n-]o1
  AC50: > 42 µM (inactive)

## O=C(CSc1nnc(CNC(=O)c2ccco2)o1)Nc1nc2ccccc2s1
  AC50: > 42 µM (inactive)

## O=C(Nc1nnc(COc2ccc(F)cc2)s1)c1cccs1
  AC50: > 42 µM (inactive)

## S=C(Nc1ccc(Cl)cc1)N1CCN(Cc2ccccc2)CC1
  AC50: > 42 µM (inactive)

## Cc1cc(C(=O)NNC(=O)c2ccc(C)s2)c(C)o1
  AC50: > 42 µM (inactive)

## O=C(NCCCn1ccnc1)Nc1cccc2ccccc12
  AC50: > 42 µM (inactive)

## CCCNCc1cc(OCC)c(OCC(N)=O)cc1Br
  AC50: > 42 µM (inactive)

## Cc1cccc(C)c1NC(=O)C(Cl)C(=O)c1ccccc1 (stereo not given)
  AC50: 0.68 µM

## COc1ccc2c(c1)[C@H]1[C@H](CO2)[C@H](c2ccccc2)[C@]2(C)C(=O)Nc3ccc(F)cc3C(=O)N12
  AC50: 5.38 µM

## CC1CCCC(N2C(=O)NC(NC(=O)c3ccco3)(C(F)(F)F)C2=O)C1C (stereo not given)
  AC50: > 42 µM (inactive)

## O=C(NCc1cccc(F)c1F)C1CCC(=O)N(C2CC2)C1 (stereo not given)
  AC50: > 42 µM (inactive)

## COC(=O)CCC(=O)OC1(C)C(=O)C=C2C=C(C3CC3)N(Cc3ccc4c(c3)OCO4)C=C2C1=O (stereo not given)
  AC50: > 42 µM (inactive)

## COc1cc(/C=N/NC2=NS(=O)(=O)c3ccccc32)cc(OC)c1OC
  AC50: > 42 µM (inactive)

## N#Cc1ccc(C23CC4(C2)[C@H](CN(Cc2ccc(C(F)(F)F)cc2)[C@@H]4c2ccccc2)C3c2ccc(C(F)(F)F)cc2)cc1 (stereo not given in full)
  AC50: > 42 µM (inactive)

## CC(Oc1ccc([N+](=O)[O-])cc1)C(=O)NCCCN1CCOCC1 (stereo not given)
  AC50: > 42 µM (inactive)

## COC(=O)c1ccc2[nH]c(C(C)(C)O)c(C)c2c1
  AC50: > 42 µM (inactive)

## O=C1C2CCCN2C(=S)N1C1CCCCC1 (stereo not given)
  AC50: > 42 µM (inactive)

## O=C1CN(C(=O)COC(=O)CCNS(=O)(=O)c2ccc(Cl)cc2)c2ccccc2N1
  AC50: > 42 µM (inactive)

## CC1CC(N(C(=O)c2ccccc2Cl)c2ccccc2)c2ccccc2N1 (stereo not given)
  AC50: > 42 µM (inactive)

## COC(=O)CSc1ccc(S(=O)(=O)N2CCCCCC2)cc1[N+](=O)[O-]
  AC50: > 42 µM (inactive)

## CCOc1cc(-c2ccccc2)nc(N)n1
  AC50: > 42 µM (inactive)

## CCCOc1ccccc1C1NC(=O)NC(C)=C1C(=O)OCCOCC (stereo not given)
  AC50: > 42 µM (inactive)

## Cc1cccc2nc3ccccc3cc12
  AC50: > 42 µM (inactive)

## CC(=O)Nc1cccc(OCC(O)Cn2c(C)nc3ccccc32)c1 (stereo not given)
  AC50: > 42 µM (inactive)

## Cc1sc2ncnc(N3CCC(C(=O)NNC(=O)COc4ccccc4F)CC3)c2c1C
  AC50: > 42 µM (inactive)

## O=C(c1cc(N2C(=O)C3C4CCC(C4)C3C2=O)ccc1Cl)N1CCCCCC1 (stereo not given)
  AC50: > 42 µM (inactive)

## O=C(COc1ccc([N+](=O)[O-])cc1)Nc1ccc(C(=O)NCc2cccnc2)cc1
  AC50: > 42 µM (inactive)
